Values after ≈ are worked out from the molar mass of the structure shown.
Columns and labels:
Format in all cases: physicochemical
[1] = Solid-state stability, 2-week study (HPLC, XRPD); conditions: for crystal form changes in the two-week stability assessment: 25° C./60% RH, 40° C./75% RH, two weeks
Experimental: The solubility and stability are analyzed using an Agilent 1260 infinityII Binary Pump. • 4.

[2] = Photostability of crystal form A and amorphous form; conditions: for Content (%) / Crystal form / Purity (area %) / Relative to initial (%): After 11 days, 25° C., illumination 5000 lux/h, near-ultraviolet 90 μW/cm^2; for crystal form changes in the photostability test: light conditions
Experimental: A certain amount of crystal form A and amorphous form of the compound shown in Formula (I) were respectively taken, and the stabilities of crystal form A and amorphous form were evaluated under light conditions.

[3] = Dynamic solubility in citrate buffer solutions at room temperature; conditions: for pH: supernatant
Experimental: During the test, about 200 mg of crystal form A or the amorphous form was added into 5 mL of buffered salt medium (approximately 40 mg/mL), and stirred magnetically at room temperature (approximately 25° C.). 1 mL of the suspension (or clear solution) taken at each of 2, 8, and 30 hours were centrifugated. The obtained solid is for crystal form detection (XRPD), and the supernatant/clear liquid after filtration is for solubility testing (HPLC) and pH testing.

[4] = Mechanical stability of crystal form A (grinding experiment, XRPD); conditions: room temperature
Experimental: A certain amount of crystal form A of the compound shown in Formula (I) was weighed, and ground dry or wet with an appropriate amount of water for 3 minutes at room temperature (˜23° C., 70% RH) to evaluate the mechanical stability of the crystal form A. The XRPD spectrums are shown in FIG. 6.

[5] = Citrate buffer pH = 3.5, room temperature, 2 hours
[6] = Citrate buffer pH = 3.5, room temperature, 8 hours
[7] = Citrate buffer pH = 3.5, room temperature, 30 hours
[8] = Citrate buffer pH = 4.5, room temperature, 2 hours
[9] = Citrate buffer pH = 4.5, room temperature, 8 hours
[10] = Citrate buffer pH = 4.5, room temperature, 30 hours
[11] = citrate buffer pH = 3.5, 2 hours
[12] = citrate buffer pH = 3.5, 8 hours
[13] = citrate buffer pH = 3.5, 30 hours
[14] = citrate buffer pH = 4.5, 2 hours
[15] = citrate buffer pH = 4.5, 8 hours
[16] = citrate buffer pH = 4.5, 30 hours

C#Cc1c(F)ccc2cc(O)cc(-c3ncc4c(N5CC6CCC(C5)N6)nc(OC[C@@]56CCCN5C[C@H](F)C6)nc4c3F)c12 [Amorphous]
Content (%) ([1]; 25° C./60 % RH, 1 week): 88.54%
Crystal form ([1]; 25° C./60 % RH, 1 week): Amorphous
Purity (area %) ([1]; 25° C./60 % RH, 1 week): 97.58 area %
Relative to initial (%) ([1]; 25° C./60 % RH, 1 week): 99.0%
Content (%) ([1]; 25° C./60 % RH, 2 weeks): 86.62%
Crystal form ([1]; 25° C./60 % RH, 2 weeks): Amorphous
Purity (area %) ([1]; 25° C./60 % RH, 2 weeks): 96.98 area %
Relative to initial (%) ([1]; 25° C./60 % RH, 2 weeks): 98.4%
crystal form changes in the two-week stability assessment ([1]; 60° C.): neither the amorphous form nor crystal form A underwent crystal form changes
Content (%) ([1]; 40° C./75 % RH, 1 week): 87.54%
Crystal form ([1]; 40° C./75 % RH, 1 week): Amorphous
Purity (area %) ([1]; 40° C./75 % RH, 1 week): 97.87 area %
Relative to initial (%) ([1]; 40° C./75 % RH, 1 week): 99.3%
Content (%) ([1]; 40° C./75 % RH, 2 weeks): 86.77%
Crystal form ([1]; 40° C./75 % RH, 2 weeks): Amorphous
Purity (area %) ([1]; 40° C./75 % RH, 2 weeks): 96.87 area %
Relative to initial (%) ([1]; 40° C./75 % RH, 2 weeks): 98.3%
Content (%) ([1]; 60° C., 1 week): 90.96%
Crystal form ([1]; 60° C., 1 week): Amorphous
Purity (area %) ([1]; 60° C., 1 week): 96.97 area %
Relative to initial (%) ([1]; 60° C., 1 week): 98.4%
Content (%) ([1]; 60° C., 2 weeks): 88.93%
Crystal form ([1]; 60° C., 2 weeks): Amorphous
Purity (area %) ([1]; 60° C., 2 weeks): 96.14 area %
Relative to initial (%) ([1]; 60° C., 2 weeks): 97.5%
Content (%) ([1]; initial): 90.28%
Crystal form ([1]; initial): Amorphous
Purity (area %) ([1]; initial): 98.56 area %
Content (%) [2]: 82.68%
Crystal form [2]: Amorphous
Purity (area %) [2]: 93.42 area %
Relative to initial (%) [2]: 94.8%
Initial Sample Content (%) [2]: 90.28%
Initial Sample Purity (area %) [2]: 98.56 area %
crystal form changes in the photostability test [2]: neither the amorphous form nor crystal form A underwent crystal form changes
Solubility [3, 5]: >37.77 mg/mL
Solubility [3, 6]: >38.95 mg/mL
Solubility [3, 7]: >37.45 mg/mL
Solubility [3, 8]: >33.47 mg/mL
Solubility [3, 9]: >35.71 mg/mL
Solubility [3, 10]: >37.52 mg/mL
solubility in the citrate buffer systems (in words) ([3]; citrate buffer pH=3.5 and pH=4.5): excellent solubility
pH [3, 11]: 3.63
pH [3, 12]: 3.59
pH [3, 13]: 3.56
pH [3, 14]: 4.46
pH [3, 15]: 4.44
pH [3, 16]: 4.40

CC(C)[C@H](NC(=O)[C@@H]1CCCN1C(=O)[C@@H](NC(=O)c1ccc(C(=O)NCC(=O)O)cc1)C(C)C)B1OB([C@@H](NC(=O)[C@@H]2CCCN2C(=O)[C@@H](NC(=O)c2ccc(C(=O)NCC(=O)O)cc2)C(C)C)C(C)C)OB([C@@H](NC(=O)[C@@H]2CCCN2C(=O)[C@@H](NC(=O)c2ccc(C(=O)NCC(=O)O)cc2)C(C)C)C(C)C)O1 [Form A]
Achieved Crystal Form ([4]; Dry grind for 3 minutes): Amorphous
Achieved Crystal Form ([4]; Dry grind for 3 minutes, listed as crystal form A): transformed into the amorphous form
Achieved Crystal Form ([4]; Wet grind with water for 3 minutes): Form A
Achieved Crystal Form ([4]; Wet grind with water for 3 minutes, listed as crystal form A): remains unchanged
Content (%) ([1]; 25° C./60 % RH, 1 week): 86.07%
Crystal form ([1]; 25° C./60 % RH, 1 week): Form A
Purity (area %) ([1]; 25° C./60 % RH, 1 week): 97.98 area %
Relative to initial (%) ([1]; 25° C./60 % RH, 1 week): 98.9%
Content (%) ([1]; 25° C./60 % RH, 2 weeks): 86.60%
Crystal form ([1]; 25° C./60 % RH, 2 weeks): Form A
Purity (area %) ([1]; 25° C./60 % RH, 2 weeks): 97.68 area %
Relative to initial (%) ([1]; 25° C./60 % RH, 2 weeks): 98.6%
crystal form changes in the two-week stability assessment ([1]; 60° C.): neither the amorphous form nor crystal form A underwent crystal form changes
Content (%) ([1]; 40° C./75 % RH, 1 week): 86.41%
Crystal form ([1]; 40° C./75 % RH, 1 week): Form A
Purity (area %) ([1]; 40° C./75 % RH, 1 week): 97.96 area %
Relative to initial (%) ([1]; 40° C./75 % RH, 1 week): 98.9%
Content (%) ([1]; 40° C./75 % RH, 2 weeks): 86.85%
Crystal form ([1]; 40° C./75 % RH, 2 weeks): Form A
Purity (area %) ([1]; 40° C./75 % RH, 2 weeks): 97.76 area %
Relative to initial (%) ([1]; 40° C./75 % RH, 2 weeks): 98.7%
Content (%) ([1]; 60° C., 1 week): 87.34%
Crystal form ([1]; 60° C., 1 week): Form A
Purity (area %) ([1]; 60° C., 1 week): 98.16 area %
Relative to initial (%) ([1]; 60° C., 1 week): 99.1%
Content (%) ([1]; 60° C., 2 weeks): 87.98%
Crystal form ([1]; 60° C., 2 weeks): Form A
Purity (area %) ([1]; 60° C., 2 weeks): 97.50 area %
Relative to initial (%) ([1]; 60° C., 2 weeks): 98.4%
Content (%) ([1]; initial): 87.08%
Crystal form ([1]; initial): Form A
Purity (area %) ([1]; initial): 99.05 area %
Content (%) [2]: 85.00%
Crystal form [2]: Form A
Purity (area %) [2]: 97.92 area %
Relative to initial (%) [2]: 98.9%
Initial Sample Content (%) [2]: 87.08%
Initial Sample Purity (area %) [2]: 99.05 area %
crystal form changes in the photostability test [2]: neither the amorphous form nor crystal form A underwent crystal form changes
Solubility [3, 5]: 6.15 mg/mL (≈ 4.1 mM)
Solubility [3, 6]: 15.28 mg/mL (≈ 10.2 mM)
Solubility [3, 7]: 27.16 mg/mL (≈ 18.1 mM)
Solubility [3, 8]: 16.06 mg/mL (≈ 10.7 mM)
Solubility [3, 9]: 31.34 mg/mL (≈ 20.9 mM)
Solubility [3, 10]: >34.94 mg/mL
pH [3, 11]: 3.56
pH [3, 12]: 3.58
pH [3, 13]: 3.56
pH [3, 14]: 4.48
pH [3, 15]: 4.46
pH [3, 16]: 4.38

Source: patent US20250213598A1, “COMPOUNDS AS ELASTASE INHIBITOR AND SOLID FORM THEREOF” (priority 2023, published 2025)
